pIC50: −log10 of the molar value.
What follows are compounds tested against T1, B-Raf (V600E)-kinase (Homo sapiens, UniProt P15056, V600E) (assay: Kinase test B-Raf (V600E)). Conditions: 1 h incubation with kinase before start, 250 μM ATP, biotinylated MEK1 substrate.
T1 construct: purchased Upstate
Assay type: biochemical
Procedure: Kinase Test B-Raf (V600E)
In a dilution series 10 μL/well of test substance solution are placed in a multiwell plate. The dilution series is selected so that generally a range of concentrations of 2 μM to 0.119 nM or 0.017 nM is covered. If necessary the initial concentration of 2 μM is changed to 50 μM, 10 μM, 0.4 μM or 0.2857 μM and further dilution is carried out accordingly. The final concentration of DMSO is 5%. 10 μL/well of the B-Raf (V600E)-kinase solution are pipetted in (containing 0.5 ng B-Raf (V600E)-kinase, e.g. from Upstate) in 20 mM tris-HCl pH 7.5, 0.1 mM EDTA, 0.1 mM EGTA, 0.286 mM sodium orthovanadate, 10% glycerol, 1 mg/mL bovine serum albumin, 1 mM dithiothreitol) and the mixture is incubated for 1 h at RT with shaking. The kinase reaction is started by the addition of 20 μL/well ATP solution [final concentration: 250 μM ATP, 30 mM tris-HCl pH 7.5, 0.02% Brij, 0.2 mM sodium orthovanadate, 10 mM magnesium acetate, 0.1 mM EGTA, phosphatase cocktail (Sigma, # P2850, dilution recommended by the manufacturer)] and 10 μL/well MEK1 solution [containing 50 ng biotinylated MEK1 (prepared from purified MEK1 according to standard procedure, e.g. with EZ-Link Sulpho-NHS-LC-Biotin reagent, Pierce, #21335)] and carried out for 60 min at RT with constant shaking. The reaction is stopped by the addition of 12 μL/well of a 100 mM EDTA solution and incubation is continued for a further 5 min. 55 μL/well of the reaction solution are transferred into a streptavidin-coated plate (e.g. Streptawell HighBond, Roche, #11989685001) and gently shaken for 1 h at RT in order to bind biotinylated MEK1 to the plate. After elimination of the liquid the plate is washed five times with 200 μL/well of 1×PBS and 100 μL/well solution of primary antibody plus europium-labelled secondary antibody [Anti Phospho-MEK (Ser217/221), Cell Signaling, #9121 and Eu-N1 labelled goat-anti-rabbit antibody, Perkin Elmer, # AD0105] is added, the primary antibody is diluted 1:2000 and the secondary antibody is diluted to 0.4-0.5 μg/mL in Delfia Assay Buffer (Perkin Elmer, #1244-111). After 1 h shaking at RT the solution is poured away and washed five times with 200 μL/well Delfia Wash Buffer (Perkin Elmer, #4010-0010/#1244-114). After the addition of 200 μL/well Enhancement Solution (Perkin Elmer, #4001-0010/#1244-105) the mixture is shaken for 10 min at RT and then measured in a Wallac Victor using the program “Delfia Time Resolved Fluorescence (Europium)”. IC50 values are obtained from these dosage-activity curves using a software program (GraphPadPrizm).

T1 sequence (P15056 whole entry V600E): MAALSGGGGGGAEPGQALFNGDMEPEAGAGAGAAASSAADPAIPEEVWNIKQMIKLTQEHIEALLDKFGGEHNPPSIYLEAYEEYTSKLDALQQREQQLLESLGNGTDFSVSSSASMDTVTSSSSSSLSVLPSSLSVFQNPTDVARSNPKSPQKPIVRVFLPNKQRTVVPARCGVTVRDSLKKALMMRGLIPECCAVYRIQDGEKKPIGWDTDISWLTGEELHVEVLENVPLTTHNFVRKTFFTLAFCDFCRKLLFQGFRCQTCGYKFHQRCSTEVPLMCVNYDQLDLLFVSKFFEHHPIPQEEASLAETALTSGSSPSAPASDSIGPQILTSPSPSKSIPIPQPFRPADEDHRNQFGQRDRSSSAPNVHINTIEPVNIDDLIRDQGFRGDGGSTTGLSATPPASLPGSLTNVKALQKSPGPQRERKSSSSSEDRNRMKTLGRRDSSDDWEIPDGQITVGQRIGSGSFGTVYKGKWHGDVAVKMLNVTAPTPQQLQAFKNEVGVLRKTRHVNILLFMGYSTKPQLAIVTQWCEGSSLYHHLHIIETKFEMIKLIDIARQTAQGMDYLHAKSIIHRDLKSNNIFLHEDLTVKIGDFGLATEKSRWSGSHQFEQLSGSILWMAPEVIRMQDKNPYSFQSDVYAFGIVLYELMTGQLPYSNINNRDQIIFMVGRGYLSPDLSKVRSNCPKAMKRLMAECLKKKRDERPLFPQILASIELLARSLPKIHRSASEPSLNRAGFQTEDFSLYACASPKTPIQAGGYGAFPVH

| Compound | pIC50 |
| --- | --- |
| CCOCCN1CCN(c2cncc(-c3cn(-c4cc(NC(=O)c5ccc(C(C)(C)C)o5)cnc4C)nn3)c2)CC1 [I-7] | 8.30 |
| CCOCCN1CCN(c2cncc(-c3cn(-c4cc(NC(=O)c5cc(C)n(C(C)(C)C)n5)cnc4C)nn3)c2)CC1 [I-24] | 7.80 |
| COCCCN1CCN(c2cncc(-c3cn(-c4cc(NC(=O)c5cc(C)n(C(C)(C)C)n5)cnc4C)nn3)c2)CC1 [I-23] | 7.85 |
| CCc1cc(C(=O)Nc2cnc(C)c(-n3cc(-c4cncc(N5CCN(C6CC6)CC5)c4)nn3)c2)nn1C(C)(C)C [I-26] | 7.26 |
| CCN1CCN(c2cncc(-c3cn(-c4cc(NC(=O)c5ccc(C(C)(C)C)s5)cnc4C)nn3)c2)CC1 [I-12] | 8.52 |
| Cc1ncc(NC(=O)c2ccc(C(C)(C)C)o2)cc1-n1cc(-c2cncc(N3CCN(C(C)(C)C)CC3)c2)nn1 [I-4] | 8.40 |
| Cc1ncc(NC(=O)c2ccc(C(C)(C)C)s2)cc1-n1cc(-c2cncc(N3CCN(C)CC3)c2)nn1 [I-14] | 8.70 |
| CCc1cc(C(=O)Nc2cnc(C)c(-n3cc(-c4cncc(N5CCN(C)CC5)c4)nn3)c2)nn1C(C)(C)C [I-30] | 7.82 |
| Cc1ncc(NC(=O)c2cc(C)n(C(C)(C)C)n2)cc1-n1cc(-c2cncc(N3CCN(CC4CC4)CC3)c2)nn1 [I-22] | 7.96 |
| Cc1ncc(NC(=O)c2cc(C)n(C(C)(C)C)n2)cc1-n1cc(-c2cncc(N3CCN(C4CC4)CC3)c2)nn1 [I-15] | 7.70 |
| Cc1ncc(NC(=O)c2ccc(C(C)(C)C)s2)cc1-n1cc(-c2cncc(N3CCN(CC4CC4)CC3)c2)nn1 [I-10] | 8.22 |
| Cc1ncc(NC(=O)c2ccc(C(C)(C)C)o2)cc1-n1cc(-c2cncc(N3CCN(CC4CC4)CC3)c2)nn1 [I-5] | 8.52 |
| CCc1cc(C(=O)Nc2cnc(C)c(-n3cc(-c4cncc(N5CCN(CC)CC5)c4)nn3)c2)nn1C(C)(C)C [I-31] | 7.92 |
| CCN1CCN(c2cncc(-c3cn(-c4cc(NC(=O)c5cc(C)n(C(C)(C)C)n5)cnc4C)nn3)c2)CC1 [I-20] | 8.15 |
| Cc1ncc(NC(=O)c2cc(C)n(C(C)(C)C)n2)cc1-n1cc(-c2cncc(N3CCCN(C)CC3)c2)nn1 [I-16] | 8.05 |
| Cc1ncc(NC(=O)c2cc(C)n(C(C)(C)C)n2)cc1-n1cc(-c2cncc(N3CCN(CCOC(C)C)CC3)c2)nn1 [I-25] | 7.80 |

| Compound | pIC50 |
| --- | --- |
| Cc1ncc(NC(=O)c2cc(C)n(C(C)(C)C)n2)cc1-n1cc(-c2cncc(N3CCCN(C(C)C)CC3)c2)nn1 [I-29] | 7.72 |
| COCCCN1CCN(c2cncc(-c3cn(-c4cc(NC(=O)c5ccc(C(C)(C)C)s5)cnc4C)nn3)c2)CC1 [I-9] | 8.15 |
| Cc1ncc(NC(=O)c2ccc(C(C)(C)C)o2)cc1-n1cc(-c2cncc(N3CCN(C)CC3)c2)nn1 [I-2] | 8.70 |
| CCOCCN1CCN(c2cncc(-c3cn(-c4cc(NC(=O)c5ccc(C(C)(C)C)s5)cnc4C)nn3)c2)CC1 [I-8] | 8.10 |
| Cc1ncc(NC(=O)c2ccc(C(C)(C)C)s2)cc1-n1cc(-c2cncc(N3CCN(C(C)(C)C)CC3)c2)nn1 [I-11] | 8.22 |
| COCCCN1CCN(c2cncc(-c3cn(-c4cc(NC(=O)c5ccc(C(C)(C)C)o5)cnc4C)nn3)c2)CC1 [I-6] | 8.30 |
| Cc1ncc(NC(=O)c2ccc(C(C)(C)C)o2)cc1-n1cc(-c2cncc(N3CCN(C(C)C)CC3)c2)nn1 [I-1] | 8.40 |
| CCCN1CCN(c2cncc(-c3cn(-c4cc(NC(=O)c5cc(C)n(C(C)(C)C)n5)cnc4C)nn3)c2)CC1 [I-17] | 8.00 |
| CCc1cc(C(=O)Nc2cnc(C)c(-n3cc(-c4cncc(N5CCN(C(C)C)CC5)c4)nn3)c2)nn1C(C)(C)C [I-27] | 7.92 |
| CCCN1CCN(c2cncc(-c3cn(-c4cc(NC(=O)c5cc(CC)n(C(C)(C)C)n5)cnc4C)nn3)c2)CC1 [I-28] | 8.15 |
| CCN1CCN(c2cncc(-c3cn(-c4cc(NC(=O)c5ccc(C(C)(C)C)o5)cnc4C)nn3)c2)CC1 [I-3] | 8.52 |
| Cc1ncc(NC(=O)c2cc(C)n(C(C)(C)C)n2)cc1-n1cc(-c2cncc(N3CCN(C(C)(C)C)CC3)c2)nn1 [I-21] | 8.05 |
| Cc1ncc(NC(=O)c2cc(C)n(C(C)(C)C)n2)cc1-n1cc(-c2cncc(N3CCN(C(C)C)CC3)c2)nn1 [I-19] | 8.10 |
| Cc1ncc(NC(=O)c2cc(C)n(C(C)(C)C)n2)cc1-n1cc(-c2cncc(N3CCN(C)CC3)c2)nn1 [I-18] | 8.10 |
| Cc1ncc(NC(=O)c2ccc(C(C)(C)C)s2)cc1-n1cc(-c2cncc(N3CCN(C(C)C)CC3)c2)nn1 [I-13] | 8.30 |

Results, then the compound that gave them:

| pIC50 | Compound |
| --- | --- |
| 8.22 | CCN1CCN(c2cncc(-c3cn(-c4cc(NC(=O)c5cc(C)n(C(C)C)n5)cnc4C)nn3)c2)CC1 [I-46] |
| 7.15 | CCCc1cc(C(=O)Nc2cnc(C)c(-n3cc(-c4cncc(N5CCN(C6CC6)CC5)c4)nn3)c2)nn1C(C)(C)C [I-32] |
| 7.66 | Cc1ncc(NC(=O)c2cc(C)n(C(C)C)n2)cc1-n1cc(-c2cncc(N3CCN(C4CC4)CC3)c2)nn1 [I-49] |
| 7.80 | Cc1ncc(NC(=O)c2cc(C3CC3)n(C(C)(C)C)n2)cc1-n1cc(-c2cncc(N3CCN(C)CC3)c2)nn1 [I-41] |
| 7.74 | CCCc1cc(C(=O)Nc2cnc(C)c(-n3cc(-c4cncc(N5CCN(C)CC5)c4)nn3)c2)nn1C(C)(C)C [I-36] |
| 8.22 | Cc1ncc(NC(=O)c2cc(C)n(C(C)C)n2)cc1-n1cc(-c2cncc(N3CCN(C(C)C)CC3)c2)nn1 [I-47] |
| 8.05 | Cc1ncc(NC(=O)c2cc(C)n(C(C)C)n2)cc1-n1cc(-c2cncc(N3CCN(C)CC3)c2)nn1 [I-45] |
| 7.66 | CCN1CCN(c2cncc(-c3cn(-c4cc(NC(=O)c5cc(C6CC6)n(C(C)(C)C)n5)cnc4C)nn3)c2)CC1 [I-43] |
| 7.52 | CCCN1CCN(c2cncc(-c3cn(-c4cc(NC(=O)c5cc(C6CC6)n(C(C)(C)C)n5)cnc4C)nn3)c2)CC1 [I-44] |
| 7.66 | Cc1ncc(NC(=O)c2cc(C3CC3)n(C(C)(C)C)n2)cc1-n1cc(-c2cncc(N3CCN(C(C)C)CC3)c2)nn1 [I-42] |
| 7.54 | Cc1ncc(NC(=O)c2cc(C(C)C)n(C(C)(C)C)n2)cc1-n1cc(-c2cncc(N3CCN(C(C)C)CC3)c2)nn1 [I-38] |
| 7.64 | CCCc1cc(C(=O)Nc2cnc(C)c(-n3cc(-c4cncc(N5CCN(C(C)C)CC5)c4)nn3)c2)nn1C(C)(C)C [I-34] |
| 7.80 | CCCc1cc(C(=O)Nc2cnc(C)c(-n3cc(-c4cncc(N5CCN(CC)CC5)c4)nn3)c2)nn1C(C)(C)C [I-33] |
| 7.66 | CCCc1cc(C(=O)Nc2cnc(C)c(-n3cc(-c4cncc(N5CCN(CCC)CC5)c4)nn3)c2)nn1C(C)(C)C [I-35] |
| 8.10 | CCCN1CCN(c2cncc(-c3cn(-c4cc(NC(=O)c5cc(C)n(C(C)C)n5)cnc4C)nn3)c2)CC1 [I-48] |
| 7.77 | Cc1ncc(NC(=O)c2cc(C(C)C)n(C(C)(C)C)n2)cc1-n1cc(-c2cncc(N3CCN(C)CC3)c2)nn1 [I-37] |
| 7.59 | CCCN1CCN(c2cncc(-c3cn(-c4cc(NC(=O)c5cc(C(C)C)n(C(C)(C)C)n5)cnc4C)nn3)c2)CC1 [I-40] |
| 8.30 | Cc1ncc(NC(=O)c2cc(C)n(C(C)C)n2)cc1-n1cc(-c2cncc(N3CCCN(C)CC3)c2)nn1 [I-50] |
| 7.60 | CCN1CCN(c2cncc(-c3cn(-c4cc(NC(=O)c5cc(C(C)C)n(C(C)(C)C)n5)cnc4C)nn3)c2)CC1 [I-39] |

— patent publication US8865703B2, “Pyridyltriazoles” (Boehringer Ingelheim International GmbH, priority 2010, dated 2014)
